# From patent publication US5753617A, “Peptide inhibitors of cellular adhesion” (Centocor, Inc., priority 1995, dated 1998)
# Where a SMILES comes first, the peptide text is derived from it. Bridges are numbered along the chain shown (N, C = ends). [ ]: non-standard residue; d: D form. dPen = CC(C)(S)[C@@H](N)C(=O)O; Dap = NC[C@H](N)C(=O)O
# Molecular target: T1, P-selectin (Homo sapiens, UniProt P16109)
# T1 construct: P-selectin is isolated from human platelet lysates; from tissue; host or cells: human platelets (outdated platelet packs from a blood bank)
# T1 sequence (P16109 42-830): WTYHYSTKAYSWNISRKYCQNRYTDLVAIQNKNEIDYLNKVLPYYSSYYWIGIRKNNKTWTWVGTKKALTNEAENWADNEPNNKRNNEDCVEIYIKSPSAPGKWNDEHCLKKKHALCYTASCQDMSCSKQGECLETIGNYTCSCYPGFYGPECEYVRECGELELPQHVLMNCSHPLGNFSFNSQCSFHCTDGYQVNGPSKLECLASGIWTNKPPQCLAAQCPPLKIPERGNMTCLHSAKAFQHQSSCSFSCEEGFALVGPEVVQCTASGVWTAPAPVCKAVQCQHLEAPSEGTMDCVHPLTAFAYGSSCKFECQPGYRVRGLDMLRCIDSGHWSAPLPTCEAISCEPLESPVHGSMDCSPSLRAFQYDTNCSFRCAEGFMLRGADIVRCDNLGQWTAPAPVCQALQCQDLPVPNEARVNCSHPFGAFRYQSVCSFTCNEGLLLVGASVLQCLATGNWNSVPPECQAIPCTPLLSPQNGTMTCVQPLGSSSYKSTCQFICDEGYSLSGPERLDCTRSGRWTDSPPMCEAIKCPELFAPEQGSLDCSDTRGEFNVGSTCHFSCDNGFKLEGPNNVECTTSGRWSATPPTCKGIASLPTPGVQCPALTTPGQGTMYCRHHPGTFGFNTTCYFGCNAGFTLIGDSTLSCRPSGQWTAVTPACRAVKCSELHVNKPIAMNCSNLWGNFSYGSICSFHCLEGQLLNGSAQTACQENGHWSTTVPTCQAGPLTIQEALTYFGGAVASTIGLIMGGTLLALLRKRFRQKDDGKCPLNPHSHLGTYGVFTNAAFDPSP
# Test: Inhibition of human neutrophil adhesion to purified P-selectin immobilized on plastic wells
# Assay type: cell-based
# Conditions: inhibiting the binding of human neutrophils to P-selectin
# Text: Peptides can be screened for their ability to inhibit adhesion to cells, for example, neutrophil adhesion to purified P-selectin immobilized on plastic wells, using the assay described by Geng, et al., Nature 343, 757-760 (1990). Human neutrophils are isolated from heparinized whole blood by density gradient centrifugation on Mono-Poly resolving media, Flow Laboratories. Neutrophil suspensions are greater than 98% pure and greater than 95% viable by trypan blue exclusion. For adhesion assays, neutrophils are suspended at a concentration of 2×10^6 cells/mL in Hanks' balanced salt solution containing 1.26 mM Ca^2+ and 0.81 mM Mg^2+ (HBSS, Gibco) with […] human serum albumin (HBSS/HSA). Adhesion assays are conducted in triplicate in 96-well microliter plates, Corning, incubated at 4° C. overnight with 50 microliters of various protein solutions. P-selectin is isolated from human platelet lysates by immunoaffinity chromatography on antibody S12-Sepharose™ and ion-exchange chromatography on a Mono-Q™ column (FLPC, Pharmacia Fine Chemicals), as follows. Outdated human platelet packs (100 units) obtained from a blood bank and stored at 4° C. are pooled, adjusted to 5 mM EDTA at pH 7.5, centrifuged at 4,000 rpm for 30 minutes in 1 liter bottles, then washed three times with 1 liter of 0.1M NaCl, 20 mM Tris pH 7.5 (TBS), 5 mM EDTA, 5 mM benzamidine. The pellets are then resuspended in a minimum amount of wash buffer and made 1 mM in DIFP, then frozen in 50 mL screwtop tubes at -80° C. The frozen platelets are thawed and resuspended in 50 mL TBS, 5 mM benzamidine, 5 mM EDTA pH 7.5, […]. The suspension is frozen and thawed two times in a dry ice-acetone bath using a 600 mL lyophilizing flask, then homogenized in a glass/teflon mortar and pestle and made 1 mM in DIFP. The NaCl concentration is adjusted to 0.5M with a stock solution of 4M NaCl. After stirring the suspension at 4° C., it is centrifuged in polycarbonate tubes at 33,000 rpm for 60 minutes at 4° C. The supernatant (0.5M NaCl wash) is removed and saved; this supernatant contains the soluble form of P-selectin. Care is taken not to remove the top part of the pellet with the supernatant. The pellets are then homogenized in extraction buffer (TBS, 5 mM benzamidine, 5 mM EDTA, pH 7.5, 100 μM leupeptin, 2% Triton X-100). After centrifugation at 19,500 rpm for 25 minutes at 4° C., the supernatant is removed. The extraction procedure is repeated with the pellet and the supernatant is combined with the first supernatant. The combined extracts, which contain the membrane form of P-selectin, are adjusted to 0.5M NaCl. The soluble fraction (0.5M NaCl wash) and the membrane extract (also adjusted to 0.5M NaCl) are absorbed with separate pools of the monoclonal antibody S12 (directed to P-selectin) previously couple […]) at 5 mg/mL for 2 hours at 4° C. After letting the resins settle, the supernatants are removed. The S12 Affigel containing bound GMP-140 is then loaded into a column and washed overnight at 4° C. with 400 mL of 0.5M NaCl, 20 mM Tris pH 7.5, 0.01% Lubrol PX. Bound P-selectin is eluted from the S12 Affigel with 100 mL of 80% ethylene glycol, 1 mM MES pH 6.0, 0.01% Lubrol PX. Peak fractions with absorbance at 280 nm are pooled. Eluates are dialyzed against TBS with 0.05% Lubrol, then applied to a Mono Q column (FPLC from Pharmacia). The concentrated protein is step eluted with 2M NaCl, 20 mM Tris pH 7.5 (plus 0.05% Lubrol PX for the membrane fraction). Peak fractions are dialyzed into TBS pH 7.5 (plus 0.05% Lubrol PX for the membrane fraction). P-selectin is plated at 5 micrograms/mL and the control proteins: human serum albumin (Alb), platelet glycoprotein IIb/IIIa (IIb), von Willebrand factor (vWF), fibrinogen (FIB), thrombomodulin (TM), gelatin (GEL) or human serum (HS), are added at 50 micrograms/mL. […]
row,IC50 [µM],SMILES
1,69,CC[C@H](C)[C@@H]1NC(=O)[C@H](CCCCN)NC(=O)[C@@H](N)CCCCNC(=O)CC[C@@H](C(=O)N[C@@H](Cc2c[nH]c3ccccc23)C(=O)N[C@H](C(=O)N[C@@H](Cc2c[nH]c3ccccc23)C(=O)N[C@H](C(N)=O)C(C)C)[C@@H](C)O)NC(=O)CNC(=O)CNC1=O [(2)] (H-KKIGGEWTWV-NH2; lactam 1-6)
2,131,CC[C@H](C)[C@@H]1NC(=O)CNC(=O)CNC(=O)[C@H]([C@@H](C)CC)NC(=O)[C@H](CCCCN)NC(=O)[C@@H](N)CSSC[C@@H](C(N)=O)NC(=O)[C@H](Cc2c[nH]c3ccccc23)NC(=O)[C@H]([C@@H](C)O)NC(=O)[C@H](Cc2c[nH]c3ccccc23)NC1=O [(3)] (H-CKIGGIWTWC-NH2; disulfide 1-10)
3,36,CC[C@H](C)[C@@H]1NC(=O)[C@@H](NC(=O)[C@@H](N)CCCNC(=N)N)CSSC[C@@H](C(=O)N[C@@H](Cc2c[nH]c3ccccc23)C(=O)N[C@H](C(=O)N[C@@H](Cc2c[nH]c3ccccc23)C(=O)N[C@H](C(N)=O)C(C)C)[C@@H](C)O)NC(=O)CNC(=O)CNC1=O [(5)] (H-RCIGGCWTWV-NH2; disulfide 2-6)
4,54,CC(C)[C@H](NC(=O)[C@H](Cc1c[nH]c2ccccc12)NC(=O)[C@@H](NC(=O)[C@H](Cc1c[nH]c2ccccc12)NC(=O)[C@@H]1CSSC[C@H](N)C(=O)N[C@@H](CCCNC(=N)N)C(=O)NCC(=O)NCC(=O)N1)[C@@H](C)O)C(N)=O [(6)] (H-CRGGCWTWV-NH2; disulfide 1-5)
5,610,C[C@@H](O)[C@H](NC(=O)[C@H](Cc1c[nH]c2ccccc12)NC(=O)[C@@H]1CSSC[C@H](NC(=O)[C@H](CCCCN)NC(=O)[C@@H](N)CCCNC(=N)N)C(=O)NCC(=O)NCC(=O)N1)C(=O)N[C@@H](Cc1c[nH]c2ccccc12)C(N)=O [(7)] (H-RKCGGCWTW-NH2; disulfide 3-6)
6,97,C[C@H](O)[C@@H](NC(=O)[C@@H](Cc1c[nH]c2ccccc12)NC(=O)[C@H]1CSSC[C@@H](NC(=O)[C@@H](CCCCN)NC(=O)[C@H](N)CCCNC(=N)N)C(=O)NCC(=O)NCC(=O)N1)C(=O)N[C@H](Cc1c[nH]c2ccccc12)C(N)=O [(8)] (H-[dR][dK][dC]GG[dC][dW][dT][dW]-NH2; disulfide 3-6)
7,30,CC(C)[C@H](NC(=O)[C@H](Cc1c[nH]c2ccccc12)NC(=O)[C@@H](NC(=O)[C@H](Cc1c[nH]c2ccccc12)NC(=O)[C@@H]1NC(=O)CNC(=O)CNC(=O)[C@@H](NC(=O)[C@H](CCCCN)NC(=O)[C@@H](N)CCCNC(=N)N)CSSC1(C)C)[C@@H](C)O)C(N)=O [(10)] (H-RKCGG[dPen]WTWV-NH2; disulfide 3-6)
8,40,CC(C)[C@@H](NC(=O)[C@@H](Cc1c[nH]c2ccccc12)NC(=O)[C@H](NC(=O)[C@@H](Cc1ccccc1)NC(=O)[C@H]1CSSC[C@@H](NC(=O)[C@@H](CCCCN)NC(=O)[C@H](N)CCCNC(=N)N)C(=O)NCC(=O)NCC(=O)N1)[C@H](C)O)C(N)=O [(14)] (H-[dR][dK][dC]GG[dC][dF][dT][dW][dV]-NH2; disulfide 3-6)
9,485,CC(C)[C@@H](NC(=O)[C@@H](Cc1c[nH]c2ccccc12)NC(=O)[C@H](NC(=O)[C@@H](Cc1c[nH]c2ccccc12)NC(=O)[C@H]1CSSC[C@@H](NC(=O)[C@@H](CCCCN)NC(=O)[C@H](N)CCCNC(=N)N)C(=O)N2CCC[C@@H]2C(=O)NCC(=O)N1)[C@H](C)O)C(N)=O [(15)] (H-[dR][dK][dC][dP]G[dC][dW][dT][dW][dV]-NH2; disulfide 3-6)
10,1,CC(C)[C@@H](NC(=O)[C@@H](Cc1c[nH]c2ccccc12)NC(=O)[C@H](NC(=O)[C@@H](Cc1c[nH]c2ccccc12)NC(=O)[C@H]1CSSC[C@@H](NC(=O)[C@@H](CCCCN)NC(=O)[C@H](N)CCCNC(=N)N)C(=O)NCC(=O)N2CCC[C@@H]2C(=O)N1)[C@H](C)O)C(N)=O [(16)] (H-[dR][dK][dC]G[dP][dC][dW][dT][dW][dV]-NH2; disulfide 3-6)
11,225,CC(C)[C@@H](NC(=O)[C@@H](Cc1c[nH]c2ccccc12)NC(=O)[C@@H](CCC(N)=O)NC(=O)[C@H](NC(=O)[C@@H](Cc1c[nH]c2ccccc12)NC(=O)[C@H]1CSSC[C@@H](NC(=O)[C@@H](CCCCN)NC(=O)[C@H](N)CCCNC(=N)N)C(=O)NCC(=O)NCC(=O)N1)[C@H](C)O)C(N)=O [(17)] (H-[dR][dK][dC]GG[dC][dW][dT][dQ][dW][dV]-NH2; disulfide 3-6)
12,13,CC(C)[C@H](NC(=O)[C@H](Cc1c[nH]c2ccccc12)NC(=O)[C@@H](NC(=O)[C@H](Cc1c[nH]c2ccccc12)NC(=O)[C@@H]1CC(=O)NC[C@H](NC(=O)[C@H](CCCCN)NC(=O)[C@@H](N)CCCNC(=N)N)C(=O)NCC(=O)NCC(=O)N1)[C@@H](C)O)C(N)=O [(22)] (H-RK[Dap]GGDWTWV-NH2; lactam 3-6)
13,36,CC(C)[C@H](NC(=O)[C@H](Cc1c[nH]c2ccccc12)NC(=O)[C@@H](NC(=O)[C@H](Cc1c[nH]c2ccccc12)NC(=O)[C@@H]1CSSC(C)(C)[C@@H](NC(=O)[C@H](CCCCN)NC(=O)[C@@H](N)CCCNC(=N)N)C(=O)NCC(=O)NCC(=O)N1)[C@@H](C)O)C(N)=O [(23)] (H-RK[dPen]GGCWTWV-NH2; disulfide 3-6)
14,41,CC(C)[C@H](NC(=O)[C@H](Cc1c[nH]c2ccccc12)NC(=O)[C@@H](NC(=O)[C@H](Cc1c[nH]c2ccccc12)NC(=O)[C@@H]1NC(=O)CNC(=O)CNC(=O)[C@H](NC(=O)[C@H](CCCCN)NC(=O)[C@@H](N)CCCNC(=N)N)C(C)(C)SSC1(C)C)[C@@H](C)O)C(N)=O [(24)] (H-RK[dPen]GG[dPen]WTWV-NH2; disulfide 3-6)
15,26,CC(C)[C@@H](NC(=O)[C@@H](Cc1c[nH]c2ccccc12)NC(=O)[C@H](NC(=O)[C@@H](Cc1c[nH]c2ccccc12)NC(=O)[C@H]1CSSC[C@@H](NC(=O)[C@H](N)CCCCN)C(=O)NCC(=O)NCC(=O)N1)[C@H](C)O)C(N)=O [(26)] (H-[dK][dC]GG[dC][dW][dT][dW][dV]-NH2; disulfide 2-5)
16,311,CC(C)[C@@H](NC(=O)[C@@H](Cc1c[nH]c2ccccc12)NC(=O)[C@H](NC(=O)[C@@H](Cc1c[nH]c2ccccc12)NC(=O)[C@H]1CSSC[C@@H](N)C(=O)NCC(=O)NCC(=O)N1)[C@H](C)O)C(N)=O [(28)] (H-[dC]GG[dC][dW][dT][dW][dV]-NH2; disulfide 1-4)
